Blank lines part the entries; values can stand above or below the compound they belong to.
How the values were obtained:
A549 [1] = experiment: Antitumor activity against human A549 cells xenografted in zebrafish model assessed as reduction in tumor focal area at 2.5 uM relative to control; format: functional; design: scale not given: the % may be the effect or the level left
A549 [2] = experiment: Antiproliferative activity against human A549 cells assessed as inhibition of cell growth by MTT assay; format: functional, cell-based
[3] = Antiproliferative activity against human IMR-90 cells assessed as inhibition of cell growth by MTT assay; format: toxicity, cell-based
Ehrlich [4] = experiment: Antitumor activity against mouse EAC cells implanted in Swiss albino mouse model assessed as increase in life span at 10 mg/kg, ip administered each day for 9 days and measured after 14 days relative to control; format: functional; conditions: time 14 day
Ehrlich [5] = experiment: Antitumor activity against mouse EAC cells implanted in Swiss albino mouse model assessed as tumor growth inhibition at 10 mg/kg, ip administered each day for 9 days and measured after 14 days relative to control; format: functional; conditions: 336 h, time 14 day
MDA-MB-231 = experiment: Antiproliferative activity against human MDA-MB-231 cells assessed as inhibition of cell growth by MTT assay; format: functional, cell-based
A549/TR = experiment: Antiproliferative activity against taxol-resistant human A549/Taxol cells assessed as inhibition of cell growth by MTT assay; format: functional, cell-based
HT-29 = experiment: Antiproliferative activity against human HT-29 cells assessed as inhibition of cell growth by MTT assay; format: functional, cell-based
Bel-7402 = experiment: Antiproliferative activity against human Bel-7402 cells assessed as inhibition of cell growth by MTT assay; format: functional, cell-based
HepG2 [6] = experiment: Antiproliferative activity against human HepG2 cells assessed as inhibition of cell growth by MTT assay; format: functional, cell-based
A549 [7] = experiment: Antitumor activity against human A549 cells xenografted in BALB/c nude mouse model assessed as inhibition of tumor growth at 80 mg/kg, ip administered every other day for 7 times relative to control; format: functional
SGC-7901 [8] = experiment: Antiproliferative activity against human SGC-7901 cells assessed as inhibition of cell growth by MTT assay; format: functional, cell-based
NCI-H460 = experiment: Antiproliferative activity against human NCI-H460 cells assessed as inhibition of cell growth by MTT assay; format: functional, cell-based
MCF7 = experiment: cells; conditions: Homo sapiens
Hep 3B2 = experiment: Antiproliferative activity against human Hep3B cells assessed as inhibition of cell growth incubated for 72 hrs by MTT assay; format: functional, cell-based
H22 [9] = experiment: Antitumor activity against […] cells xenografted in BALB/c mouse model assessed as inhibition of tumor growth at 15 mg/kg, ip administered every 2 days for 15 days relative to control; format: functional; conditions: H22, 360 h, time 15 day
HepG2 [10] = experiment: Antiproliferative activity against human HepG2 cells assessed as inhibition of cell growth incubated for 72 hrs by MTT assay; format: functional, cell-based; conditions: HepG2, 72 h
H22 [11] = experiment: Antitumor activity against […] cells xenografted in BALB/c mouse model assessed as inhibition of tumor growth at 45 mg/kg, ip administered every 2 days for 15 days relative to control; format: functional; conditions: H22, 360 h, time 15 day
[12] = AUC(0 to infinity) in BALB/c mouse at 45 mg/kg, ip measured up to 24 hrs; format: ADME, organism-based; design: dose 45 mg/kg, time < 24 hrs, route ip; conditions: in vivo
[13] = Antiproliferative activity against BCRP-mediated human Topotecan-resistant MCF7/MX100 cells assessed as inhibition of cell growth incubated for 5 days by MTS assay; format: functional, cell-based; conditions: MCF7/MX100, 120 h
[14] = Cmax in BALB/c mouse at 45 mg/kg, ip measured up to 24 hrs; format: ADME, organism-based; design: time < 24 hrs, dose 45 mg/kg, route ip; conditions: in vivo
[15] = Antiproliferative activity against BCRP-mediated human Doxorubicin-resistant S1M180 cells assessed as inhibition of cell growth incubated for 5 days by MTS assay; format: functional, cell-based; conditions: S1-M1-80, 120 h
[16] = Antiproliferative activity against BCRP-mediated human Topotecan-resistant S1M180 cells assessed as inhibition of cell growth incubated for 5 days by MTS assay; format: functional, cell-based; conditions: 120 h
[17] = Tmax in BALB/c mouse at 45 mg/kg, ip measured up to 24 hrs; format: ADME, organism-based; conditions: in vivo
[18] = Antiproliferative activity against […]-mediated human Doxorubicin-resistant 2008/MRP1 cells assessed as inhibition of cell growth incubated for 5 days by MTS assay; format: functional, cell-based, Doxorubicin-resistant 2008/MRP1 cell; conditions: 2008/MRP1, 120 h
[19] = Half life in BALB/c mouse at 45 mg/kg, ip measured up to 24 hrs; format: ADME, organism-based; conditions: in vivo
[20] = Antitumor activity against human Topotecan-resistant S1M180 cells over expressing BCRP xenografted in BALB/c nude mouse model assessed as fold change in topotecan level at 45 mg/kg, ip administered every 2 days for 6 times relative to control; format: functional, Topotecan-resistant S1M180 cell; conditions: time 12 day
[21] = Antitumor activity against human Topotecan-resistant S1M180 cells over expressing BCRP xenografted in BALB/c nude mouse model assessed as reduction in tumor volume at 45 mg/kg, ip administered every 2 days for 6 times relative to control; format: functional, Topotecan-resistant S1M180 cell; design: scale not given: the % may be the effect or the level left; conditions: time 12 day
[22] = Antiproliferative activity against BCRP-mediated Topotecan-resistant HEK293/R2 cells assessed as inhibition of cell growth incubated for 5 days by MTS assay; format: functional, cell-based; conditions: Homo sapiens, HEK293/R2, 120 h
4T1 [23] = experiment: Antitumor activity against mouse 4T1 cells implanted mouse model assessed as inhibition of tumor growth at 15 mg/kg, ip relative to control; format: functional
NCI-H1975 = experiment: Antiproliferative activity against human NCI-H1975 cells assessed as inhibition of cell growth by MTT assay; format: functional, cell-based
4T1 [24] = experiment: Antitumor activity against mouse 4T1 cells overexpressing IDO1 implanted in BALB/c mouse model assessed as inhibition of tumor growth at 25 mg/kg, ip qd administered every day for 8 consecutive days and measured after 14 days relative to control; format: functional; conditions: 4T1, 336 h, time 14 day
PC-9 [25] = experiment: Antitumor activity against human PC-9 cells xenografted in NSG mouse model assessed as inhibition of tumor growth at 25 mg/kg, ip qd administered every day for 7 consecutive days relative to control; format: functional; conditions: PC-9, 168 h, time 7 day
PC-9 [26] = experiment: Antiproliferative activity against human PC-9 cells assessed as inhibition of cell growth by MTT assay; format: functional, cell-based
MGC-803 [27] = experiment: Antitumor activity against human MGC-803 cells xenografted in BALB/c nude mouse model assessed as inhibition of tumor growth at 60 mg/kg, IG administered daily for 21 days relative to control; format: functional; conditions: MGC-803, po, 504 h, time 21 day
MGC-803 [28] = experiment: Potency index, ratio of 5-fluorouracil IC50 to test compound IC50 for antiproliferative activity against human MGC-803 cells assessed as inhibition of cell growth incubated for 72 hrs by MTT assay; format: functional
BGC-823 [29] = experiment: Antiproliferative activity against human BGC-823 cells assessed as inhibition of cell growth incubated for 72 hrs by MTT assay; format: functional, cell-based; conditions: BGC-823, 72 h
MGC-803 [30] = experiment: Antiproliferative activity against human MGC-803 cells assessed as inhibition of cell growth incubated for 72 hrs by MTT assay; format: functional, cell-based; conditions: MGC-803, 72 h
SGC-7901 [31] = experiment: Antiproliferative activity against human SGC-7901 cells assessed as inhibition of cell growth incubated for 72 hrs by MTT assay; format: functional, cell-based; conditions: SGC-7901, 72 h
SGC-7901 [32] = experiment: Potency index, ratio of 5-fluorouracil IC50 to test compound IC50 for antiproliferative activity against human SGC-7901 cells assessed as inhibition of cell growth incubated for 72 hrs by MTT assay; format: functional
BGC-823 [33] = experiment: Potency index, ratio of 5-fluorouracil IC50 to test compound IC50 for antiproliferative activity against human BGC-823 cells assessed as inhibition of cell growth incubated for 72 hrs by MTT assay; format: functional

SMILES: COc1ccc(-c2ccc3c(c2)OCC(=O)N3Cc2cn(-c3cc(Cl)cc(Cl)c3)nn2)cc1
Activity (Ehrlich [4]): 68.94%
inhibition in vivo at 10 mg/kg (Ehrlich [5]): 54%

SMILES: COC(=O)c1cccc(COc2c(-c3ccc(OCCOCCc4cn(CN(Cc5ccccc5)Cn5cc(CCOCCOc6ccc(-c7oc8ccccc8c(=O)c7OCc7cccc(C(=O)OC)c7)cc6)nn5)nn4)cc3)oc3ccccc3c2=O)c1
AUC(0-inf) [12]: 83500 ng·h/mL
EC50 [13]: 3.3 nM
Cmax [14]: 15700 ng/mL
EC50 [15]: 3.3 nM
EC50 [16]: 3.3 nM
Tmax [17]: 3 h
EC50 [18]: 3.3 nM
half-life [19]: 10.6 h
fold change (FC) [20]: 2
Activity [21]: 40%
EC50 [22]: 3.3 nM

SMILES: Clc1ccc(N/N=C/c2cn(-c3cc(Cl)cc(Cl)c3)nn2)cc1
inhibition in vivo at 15 mg/kg (4T1 [23]): > 60%
IC50 (MCF7): 3200 nM

SMILES: Cc1cc(=O)oc2cc(OCc3cn(-c4ccc(S(N)(=O)=O)cc4)nn3)ccc12
inhibition in vivo at 60 mg/kg (MGC-803 [27]): 64.2%
Ratio IC50 (MGC-803 [28]): 4.1
IC50 (BGC-823 [29]): 400 nM
IC50 (MGC-803 [30]): 3400 nM
IC50 (SGC-7901 [31]): 3500 nM
Ratio IC50 (SGC-7901 [32]): 4.1
Ratio IC50 (BGC-823 [33]): 4.1

Continued, in another order:

IC50 (A549 [2]): 2270 nM
SMILES: COc1cc(/C=C/C(=O)C(Cc2cn(Cc3ccc(Cl)c(Cl)c3)nn2)C(=O)/C=C/c2ccc(O)c(OC)c2)ccc1O
Activity (A549 [1]): 39.07%
IC50 [3]: > 100000 nM

IC50 (MDA-MB-231): 65.4 nM
IC50 (A549/TR): 65.4 nM
IC50 (A549 [2]): 63 nM
IC50 (HT-29): 65.4 nM
IC50 (Bel-7402): 65.4 nM
IC50 (HepG2 [6]): 65.4 nM
IC50 (SGC-7901 [8]): 63 nM
IC50 (NCI-H460): 65.4 nM
IC50 (MCF7): 63 nM
SMILES: COc1cc(C(=O)c2nn(-c3ccccc3F)nc2N2CC(O)C2)cc(OC)c1OC
inhibition in vivo at 80 mg/kg (A549 [7]): 60%

IC50 (HepG2 [10]): 59.6 nM
SMILES: COc1cc(C(=O)c2nn(-c3ccccc3)nc2N2CCC(N)CC2)cc(OC)c1OC
IC50 (Hep 3B2): 40.9 nM
inhibition in vivo at 15 mg/kg (H22 [9]): 66%
inhibition in vivo at 45 mg/kg (H22 [11]): 82%

IC50 (A549 [2]): 3310 nM
IC50 (NCI-H1975): 3310 nM
IC50 (NCI-H460): 3310 nM
IC50 (PC-9 [26]): 3310 nM
SMILES: COCCOc1cc2ncnc(Nc3cccc(-c4cn(Cc5cc(Br)cc(Br)c5)nn4)c3)c2cc1OCCOC
inhibition in vivo at 25 mg/kg (4T1 [24]): 64%
inhibition in vivo at 25 mg/kg (PC-9 [25]): 90%
